# Measurements published in patent US9889183B2, “PKC activators and anticoagulant in regimen for treating stroke” (BLANCHETTE ROCKEFELLER NEUROSCIENCES INSTITUTE, priority 2010, dated 2018).
# Columns and labels:
# PKCε = biological target: T1, PKCε (Homo sapiens, UniProt Q02156); assay: PKC assay with purified PKCε; assay type: biochemical
# T1 construct: purchased Calbiochem
# T1 sequence (Q02156 1-737): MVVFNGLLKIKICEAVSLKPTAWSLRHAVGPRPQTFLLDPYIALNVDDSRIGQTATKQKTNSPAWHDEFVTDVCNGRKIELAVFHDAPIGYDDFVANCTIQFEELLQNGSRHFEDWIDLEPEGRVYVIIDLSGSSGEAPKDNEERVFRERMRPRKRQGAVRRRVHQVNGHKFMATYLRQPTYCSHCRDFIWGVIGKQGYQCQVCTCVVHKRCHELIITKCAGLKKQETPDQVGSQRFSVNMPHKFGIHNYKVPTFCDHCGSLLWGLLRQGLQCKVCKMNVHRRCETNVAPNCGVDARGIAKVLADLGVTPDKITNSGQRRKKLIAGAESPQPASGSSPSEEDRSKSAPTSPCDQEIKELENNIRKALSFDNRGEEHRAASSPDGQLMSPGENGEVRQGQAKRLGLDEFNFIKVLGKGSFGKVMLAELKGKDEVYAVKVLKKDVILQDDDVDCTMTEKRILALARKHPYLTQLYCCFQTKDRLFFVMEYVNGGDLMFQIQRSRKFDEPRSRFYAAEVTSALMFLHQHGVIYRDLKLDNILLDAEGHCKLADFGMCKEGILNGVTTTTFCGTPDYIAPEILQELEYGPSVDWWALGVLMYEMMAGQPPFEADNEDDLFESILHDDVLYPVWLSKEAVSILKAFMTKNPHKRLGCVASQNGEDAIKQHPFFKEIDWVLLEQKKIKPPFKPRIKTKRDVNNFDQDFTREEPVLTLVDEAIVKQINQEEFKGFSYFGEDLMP
# Protocol: PKC assay. Recombinant PKC (1 ng of PKCα or PKCε isoform) was mixed with BR-101 (DCP-LA) in the presence of 10 micromolar histones, 5 mM CaCl2, 1.2 μg/μl phosphatidyl-L-serine, 0.18 μg/μl 1,2-dioctanoyl-sn-glycerol (DAG), 10 mM MgCl2, 20 mM HEPES (pH 7.4), 0.8 mM EDTA, 4 mM EGTA, 4% glycerol, 8 μg/ml aprotinin, 8 μg/ml leupeptin, and 2 mM benzamidine. 0.5 micro Ci[^γ32P]ATP was added. The incubation mixture was incubated for 15 min at 37 degrees in a total volume of 10 microliters. The reaction was stopped by spotting the reaction mixtures on 1×2 cm strips of cellulose phosphate paper (Whatman P81) and immediately washing twice for 1 hr in 0.5% H3PO4. The cellulose phosphate strips were counted in a scintillation counter. In some experiments, phosphatidylserine, diacylglycerol, and/or calcium were removed.
# DHA methyl ester was purchased from Cayman Chemical (Ann Arbor, Me.). PKC isozymes were from Calbiochem (San Diego, Calif.). Purified PKCε was purchased from Calbiochem.
# Protein kinase C assay. Rat hippocampal cells were cultured and scraped in 0.2 ml homogenization buffer (20 mM Tris-HCl, pH 7.4, 50 mM NaF, 1 μg/ml leupeptin, and 0.1 mM PMSF) and homogenized by sonication a Marsonix microprobe sonicator (5 sec, 10 W). To measure PKC, 10 μl of cell homogenate or purified PKC isozyme (purchased from Calbiochem) was incubated for 15 min at 37° C. in the presence of 10 μM histones, 4.89 mM CaCl2, 1.2 μg/μl phosphatidyl-L-serine, 0.18 μg/μl 1,2-dioctanoyl-sn-glycerol, 10 mM MgCl2, 20 mM HEPES (pH 7.4), 0.8 mM EDTA, 4 mM EGTA, 4% glycerol, 8 μg/ml aprotinin, 8 μg/ml leupeptin, and 2 mM benzamidine. […][^γ32P]ATP was added and ^32P-phosphoprotein formation was measured by adsorption onto phosphocellulose as described previously. Nelson and Alkon, J. Neurochemistry (1995), vol. 65, pp. 2350-2357. For measurements of activation by BR-101 (DCP-LA) and similar compounds. PKC activity was measured in the absence of diacylglycerol and phosphatidylserine and PKC δ, ε, η, and μ were measured in the absence of added EGTA and CaCl2, as described by Kanno et al. (J. Lipid Res. 2006, vol. 47, pp. 1146-1150). Low concentrations of Ca^2+ are used because high Ca^2+ interacts with the PKC phosphatidylserine binding site and prevents activation. For measurements of bryostatin activation, 1,2-diacylglycerol was omitted unless otherwise stated.
# To determine their PKC isozyme specificity, fatty acid derivatives were preincubated with purified PKC for five minutes and the PKC activity was measured radiometrically.
# TACE in primary neurons = assay: TACE assay, rat primary neurons; assay type: cell-based; conditions: FIG. 13b and 13c
# Protocol: FIGS. 13a, 13b and 13c show effects of (FIG. 13a) bryostatin, BR-101 (DCP-LA) and BR-111 (DHA-CP6) on TACE activity in N2a neuroblastoma cells transfected with human APPSwe/PS1D; (FIG. 13b) various concentrations of bryostatin on TACE activity in rat cortical primary neurons; and (FIG. 13c) BR-111 (DHA-CP6) on TACE activity in rat cortical primary neurons.
# TACE Assay. TACE was measured by incubating 5 μl cell homogenate, 3 μl buffer (50 mM Tris-HCl 7.4 plus 25 mM NaCl plus 4% glycerol), and 1 μl of 100 μM TACE substrate (Aβz-[…]-DPa) (Calbiochem) for 20 min at 37° C. 1.5-ml polypropylene centrifuge tubes. Jin et al., Anal. Biochem. (2002), vol. 302, pp. 269-275. The reaction was stopped by cooling to 4° C. The samples were diluted to 1 ml and the fluorescence was rapidly measured (ex=320 nm, em=420 nm) in a Spex Fluorolog 2 spectrofluorometer.
# Buxbaum et al., J Biol. Chem. (1998), vol. 273, pp. 27765-27767; Etcheberrigaray et al., Proc. Natl. Acad. Sci. USA (2006), vol. 103, pp. 8215-8220. However, many of these earlier studies were carried out in fibroblasts and other non-neuronal cell types, which appear to respond differently to PKC activators than neurons.
Compound,activation of PKCε (in words) (PKCε; at 10 μM),TACE activity (TACE in primary neurons),concentration needed to activate PKC relative to BR-101 (DCP-LA) (PKCε),"activation of purified PKCε (in words) (PKCε; FIG. 7, methyl esters)"
"CCCCCC1CC1CC1CC1CCCCCCCC(=O)O (centres unmarked) [BR-101, 2-[(2-pentylcyclopropyl)methyl]cyclopropaneoctanoic acid]",effective activator,–,–,–
"CCC1CC1CC1CC1CC1CC1CC1CC1CC1CC1CC1CC1CCC(=O)OC (centres unmarked) [BR-111, methyl-3-(2-((2-((2-((2-((2-((2-ethylcyclopropyl)methyl)cyclopropyl)methyl)cyclopropyl)methyl)-cyclopropyl)methyl)cyclopropyl)methyl)cyclopropyl)propanoate]",–,small increases,approximately 100 times lower,activated purified PKCε to a similar extent
"CCC/C=C/C=C/C(=O)O[C@H]1/C(=C/C(=O)OC)C[C@H]2C[C@H]([C@@H](C)O)OC(=O)C[C@H](O)C[C@@H]3C[C@H](OC(C)=O)C(C)(C)[C@](O)(C[C@@H]4C/C(=C/C(=O)OC)C[C@H](/C=C/C(C)(C)[C@]1(O)O2)O4)O3 [Bryostatin-1, bryostatin-1]",–,small increases,–,–
